Laboratory results from patent US20080171792A1, “Use of highly concentrated formulations of 4-phenylbutyrate for treatment of certain disorders” (priority 2006, published 2008).

Experiments:
[1] = high dosage of about 20 g a day; cited from earlier work
[2] = Solubility / achievable concentration of sodium 4-phenylbutyrate in water; type: physicochemical; details: supersaturated solution in aqueous medium
Experimental: This art-reported solubility is believed to pertain to the maximum solubility of the monomeric form of sodium 4-phenylbutyrate in water. As described in more detail below, a process has been identified of preparing a highly concentrated solution of sodium 4-phenylbutyrate, having a concentration 500 mg/mL in water by dissolving 5 g of sodium 4-phenylbutyrate in about 3.5 mL water to yield a solution volume of about 10 mL. The temperature can be room temperature (25° C.) or an elevated temperature, preferably in the range of up to about 80° C. The solution can be made at a higher temperature and then cooled to room temperature without precipitating resulting.

[3] = Storage of the concentrated aqueous solution at low temperature (freezing / precipitation); type: physicochemical
Experimental: Therefore, due to likely micelle formation of sodium 4-phenylbutyrate (which we term the self-associated polymeric form), the high concentration of about 500 mg/mL can be achieved in solution. […] This novel invention thus provides a dosage form better able to help the patients presently administered with a high volume dosage of sodium 4-phenylbutyrate. This invention is not intended to be limited by this discussion of micellar phases, or the presence or absence of other high concentration phases (such as sponge or L3, worm-like micelles, sheets and other laminar phases) that may be formed depending on the particular processing conditions and/or materials used. In the follow description the term “solution” is used without regard to whether a micellar phase is present. […] The mixture was cooled to 25° C. and 0.5 g of sodium benzoate was added and mixed well. […] Further cooling of this solution to about −4° C. caused precipitation.

[4] = system: histone deacetylase (HDAC); details: cited from earlier work

maximum drug concentration achieved in the formulation [2]: about 700 mg/mL | freezing of the solution ([3]; 600 mg/mL solution at 0° C.): does not freeze | temperature at which precipitation is observed on further cooling ([3]; about 500 mg/mL solution): −40 °C | freezing or precipitation upon storage ([3]; about 500 mg/mL solution, 0° C. for two days): did not freeze or precipitate out
Compound: O=C([O-])CCCc1ccccc1.[Na+] [sodium 4-phenylbutyrate]
tolerability [1]: well tolerated | inhibition of histone deacetylase (HDAC) [4]: efficient inhibitor
